The assay deals with BTK (Homo sapiens (Human), UniProt Q06187). Put plainly: Btk in vitro inhibitory activity (one of Method A TR-FRET, Method B electrophoretic mobility shift, Method C radiometric filter binding). The format is biochemical. (A gel shift assay detects complexes by their altered migration in electrophoresis.)
[1] abbreviates: determined using one of the methods of Example 355a, 355b and 355c, read-out: BTK IC50.

These results are taken from patent publication US9656988B2 (Pharmacyclics LLC, priority 2013, dated 2017).

Like-named read-outs stand apart in the source and are kept apart here.

In general, IC50 refers to the point on the concentration scale where inhibition reaches its midpoint.

BTK, sequence (Q06187 whole entry): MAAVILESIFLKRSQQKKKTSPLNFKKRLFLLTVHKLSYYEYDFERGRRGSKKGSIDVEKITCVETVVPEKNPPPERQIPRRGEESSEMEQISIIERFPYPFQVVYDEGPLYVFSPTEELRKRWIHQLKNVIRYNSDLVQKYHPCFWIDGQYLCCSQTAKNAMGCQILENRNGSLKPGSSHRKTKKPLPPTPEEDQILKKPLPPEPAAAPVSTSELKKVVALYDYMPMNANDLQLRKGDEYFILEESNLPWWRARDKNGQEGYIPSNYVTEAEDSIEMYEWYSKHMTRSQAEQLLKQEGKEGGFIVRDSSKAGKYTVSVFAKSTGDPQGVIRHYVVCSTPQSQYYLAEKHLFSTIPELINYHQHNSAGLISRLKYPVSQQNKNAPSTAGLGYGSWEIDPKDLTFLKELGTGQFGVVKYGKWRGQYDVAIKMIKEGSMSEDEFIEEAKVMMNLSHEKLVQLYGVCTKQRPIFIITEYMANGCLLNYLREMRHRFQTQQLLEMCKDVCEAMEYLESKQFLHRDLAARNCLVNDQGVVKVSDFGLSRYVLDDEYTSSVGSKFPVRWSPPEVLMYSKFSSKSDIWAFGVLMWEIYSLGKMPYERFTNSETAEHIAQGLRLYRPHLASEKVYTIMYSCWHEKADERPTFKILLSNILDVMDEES

For `CN(C)C(=O)N[C@@H]1CCCN(c2cnc(C(N)=O)c(Nc3ccc(C4CCN(S(=O)(=O)N(C)C)CC4)cc3)n2)C1` [Example 173, (R)-3-(4-(1-(N,N-dimethylsulfamoyl)piperidin-4-yl)phenylamino)-5-(3-(3,3-dimethylureido)piperidin-1-yl)pyrazine-2-carboxamide], the IC50 by setting is: (Btk (IC50)) 10 to 100 nM; under setting [1], 10 to 100 nM.
As to `NC(=O)c1nnc(N2CC[C@@H](NC(=O)C(F)(F)F)C2)nc1Nc1ccc(C(=O)N2CCOCC2)cc1` [Example 51, (R)-5-(4-(morpholine-4-carbonyl)phenylamino)-3-(3-(2,2,2-trifluoroacetamido)pyrrolidin-1-yl)-1,2,4-triazine-6-carboxamide], the IC50 under setting [1] was in the range of 100 to 1000 nM.
Same read-out and setting: the same measure for `CN(C)C(=O)N[C@@H]1CCCN(c2cnc(C(N)=O)c(Nc3ccccc3)n2)C1` [Example 180, (R)-5-(3-(3,3-dimethylureido)piperidin-1-yl)-3-(phenylamino)pyrazine-2-carboxamide]: 100 to 1000 nM.
As to `CN1CCN([C@@H]2CCCN(c3cnc(C(N)=O)c(Nc4ccc(C5CCN(C6CCCC6)CC5)cc4)n3)C2)C1=O` [Example 256, (R)-3-(4-(1-cyclopentylpiperidin-4-yl)phenylamino)-5-(3-(3-methyl-2-oxoimidazolidin-1-yl)piperidin-1-yl)pyrazine-2-carboxamide], the IC50 reads like this: under setting [1], < 10 nM; (read-out: Btk (IC50)) < 10 nM.
As to `CC(C)Oc1ccc(Nc2nc(N3CCC[C@@H](NC(=O)N(C)C)C3)cnc2C(N)=O)cc1` [Example 188, (R)-5-(3-(3,3-dimethylureido)piperidin-1-yl)-3-(4-isopropoxyphenylamino)pyrazine-2-carboxamide], the IC50 reads like this: under setting [1], < 10 nM; (read-out: Btk (IC50)) < 10 nM.
On to `CN(C)C(=O)N[C@@H]1CCCN(c2cnc(C(N)=O)c(Nc3ccc(C4CCNCC4)cc3)n2)C1` [Example 154, (R)-5-(3-(3,3-dimethylureido)piperidin-1-yl)-3-(4-(piperidin-4-yl)phenylamino)pyrazine-2-carboxamide], for which, under setting [1], the IC50 is < 10 nM.
As to `CCOC(=O)N[C@@H]1CCCN(c2cnc(C(N)=O)c(Nc3ccc(C4CCN(C5CCCC5)CC4)cc3)n2)C1` [Example 298, (R)-ethyl 1-(5-carbamoyl-6-(4-(1-cyclopentylpiperidin-4-yl)phenylamino)pyrazin-2-yl)piperidin-3-ylcarbamate], the IC50 is < 10 nM under setting [1] and < 10 nM (read-out: Btk (IC50)).
With `CN(C)C/C=C/C(=O)N1CCC[C@@H](N(C)c2cnc(C(N)=O)c(Nc3ccc(C(=O)N4CCOCC4)cc3)n2)C1` [Example 75, (R,E)-5-((1-(4-(dimethylamino)but-2-enoyl)piperidin-3-yl)(methyl)amino)-3-(4-(morpholine-4-carbonyl)phenylamino)pyrazine-2-carboxamide], under setting [1], the IC50 was < 10 nM.
Take `CN(C)C(=O)N1CCC(c2ccc(Nc3nc(N4CCC[C@@H](N(C)C(=O)N(C)C)C4)cnc3C(N)=O)cc2)CC1` [Example 226, (R)-3-(4-(1-(dimethylcarbamoyl)piperidin-4-yl)phenylamino)-5-(3-(1,3,3-trimethylureido)piperidin-1-yl)pyrazine-2-carboxamide]: the concentration for half-maximal inhibition (IC50) (Btk (IC50)) was 10 to 100 nM and the IC50 under setting [1] lay in the range of 10 to 100 nM.
Turning to `NC(=O)c1nnc(N2CCC[C@@H](N3Cc4ccccc4C3=O)C2)nc1Nc1ccc(C(=O)N2CCOCC2)cc1` [Example 104, (R)-5-(4-(morpholine-4-carbonyl)phenylamino)-3-(3-(1-oxoisoindolin-2-yl)piperidin-1-yl)-1,2,4-triazine-6-carboxamide], the IC50 under setting [1] was 10 to 100 nM.
Same read-out and setting: the same measure for `CC(C)(C)c1ccc(C(=O)N[C@@H]2CCCN(c3nnc(C(N)=O)c(Nc4cccc(-c5ncccn5)c4)n3)C2)cc1` [Example 57, (R)-3-(3-(4-tert-butylbenzamido)piperidin-1-yl)-5-(3-(pyrimidin-2-yl)phenylamino)-1,2,4-triazine-6-carboxamide]: 100 to 1000 nM; for `CN(C)S(=O)(=O)N[C@@H]1CCCN(c2cnc(C(N)=O)c(Nc3ccc(C4CCN(C5CCCC5)CC4)cc3)n2)C1` [Example 302, (R)-3-(4-(1-cyclopentylpiperidin-4-yl)phenylamino)-5-(3-(N,N-dimethylsulfamoylamino)piperidin-1-yl)pyrazine-2-carboxamide]: 10 to 100 nM; for `NC(=O)c1nnc(N2CCC[C@@H](NC(=O)N3CCCCC3)C2)nc1Nc1ccc2cccnc2c1` [Example 109, (R)-3-(3-(piperidine-1-carboxamido)piperidin-1-yl)-5-(quinolin-7-ylamino)-1,2,4-triazine-6-carboxamide]: 100 to 1000 nM.
`COc1ccc(C(=O)N[C@@H]2CCCN(c3cnc(C(N)=O)c(Nc4ccc(N5CCCCC5=O)cc4)n3)C2)cc1` [Example 128, (R)-5-(3-(4-methoxybenzamido)piperidin-1-yl)-3-(4-(2-oxopiperidin-1-yl)phenylamino)pyrazine-2-carboxamide]: the IC50 is, setting by setting: under setting [1], < 10 nM; (read-out: Btk (IC50)) < 10 nM.
Consider `Cc1ccc(C(=O)N[C@@H]2CCCN(c3nnc(C(N)=O)c(Nc4ccc(C(=O)N5CCOCC5)cc4)n3)C2)cc1` [Example 4, (R)-3-(3-(4-methylbenzamido)piperidin-1-yl)-5-(4-(morpholine-4-carbonyl)phenylamino)-1,2,4-triazine-6-carboxamide], for which the IC50 under setting [1] is < 10 nM.
`CN1CCN(c2ccc(Nc3nc(N4CCC[C@@H](NC(=O)c5ccc(C(C)(C)C)cc5)C4)cnc3C(N)=O)cc2)CC1` [Example 129, (R)-5-(3-(4-tert-butylbenzamido)piperidin-1-yl)-3-(4-(4-methylpiperazin-1-yl)phenylamino)pyrazine-2-carboxamide]: the 50% inhibitory concentration (IC50) is, setting by setting: under setting [1], < 10 nM; (read-out: Btk (IC50)) < 10 nM.
Turning to `CN(C)C(=O)N[C@@H]1CCCN(c2cnc(C(N)=O)c(Nc3ccc(Cl)cc3)n2)C1` [Example 181, (R)-3-(4-chlorophenylamino)-5-(3-(3,3-dimethylureido)piperidin-1-yl)pyrazine-2-carboxamide], the IC50 under setting [1] lay in the range of 10 to 100 nM.
For the molecule `COc1ccc(C(=O)N[C@@H]2CCCN(c3cnc(C(N)=O)c(Nc4ccc(C5CCNCC5)c(F)c4)n3)C2)cc1` [Example 163, (R)-3-(3-fluoro-4-(piperidin-4-yl)phenylamino)-5-(3-(4-methoxybenzamido)piperidin-1-yl)pyrazine-2-carboxamide], the IC50 is < 10 nM under setting [1] and < 10 nM (read-out: Btk (IC50)).
As for `C=CC(=O)N1CCC[C@@H](Nc2nnc(C(N)=O)c(Nc3ccc(C(=O)N4CCOCC4)cc3)n2)C1` [Example 65, (R)-3-(1-acryloylpiperidin-3-ylamino)-5-(4-(morpholine-4-carbonyl)phenylamino)-1,2,4-triazine-6-carboxamide], the half-inhibitory concentration (IC50) under setting [1] was < 10 nM.
On to `COc1ccc(C(=O)N[C@@H]2CCCN(c3cnc(C(N)=O)c(Nc4ccc(C5CCN(CC#N)CC5)cc4)n3)C2)cc1` [Example 136, (R)-3-(4-(1-(cyanomethyl)piperidin-4-yl)phenylamino)-5-(3-(4-methoxybenzamido)piperidin-1-yl)pyrazine-2-carboxamide], for which the half-inhibitory concentration (IC50) under setting [1] lay in the range of 10 to 100 nM and the IC50 (read-out: Btk (IC50)) was in the range of 10 to 100 nM.
With `NC(=O)c1nnc(N[C@@H]2CCCN(C(=O)C3CC3)C2)nc1Nc1ccc(C(=O)N2CCOCC2)cc1` [Example 64, (R)-3-(1-(cyclopropanecarbonyl)piperidin-3-ylamino)-5-(4-(morpholine-4-carbonyl)phenylamino)-1,2,4-triazine-6-carboxamide], the IC50 under setting [1] was < 10 nM.
Regarding `NC(=O)c1nnc(N2CCC[C@@H](NC(=O)c3cc(C4CC4)on3)C2)nc1Nc1ccc(C(=O)N2CCOCC2)cc1` [Example 95, (R)—N-(1-(6-carbamoyl-5-(4-(morpholine-4-carbonyl)phenylamino)-1,2,4-triazin-3-yl)piperidin-3-yl)-5-cyclopropylisoxazole-3-carboxamide], the IC50 under setting [1] lay within 10 to 100 nM and the IC50 (read-out: Btk (IC50)) was 10 to 100 nM.
With `NC(=O)c1ncc(N2CCC[C@@H]3[C@H]2CCN3C(=O)C2CC2)nc1Nc1ccc(C2CCN(C3CCCC3)CC2)cc1` (racemic) [Example 288, 3-(4-(1-cyclopentylpiperidin-4-yl)phenylamino)-5-((3aR,7aR)-1-(cyclopropanecarbonyl)dihydro-1H-pyrrolo[3,2-b]pyridin-4(2H,5H,6H,7H,7aH)-yl)pyrazine-2-carboxamide], the IC50 is, setting by setting: under setting [1], 10 to 100 nM; (read-out: Btk (IC50)) 10 to 100 nM.
As to `C[C@H]1[C@H](NC(=O)N(C)C)CCCN1c1cnc(C(N)=O)c(Nc2ccc(C3CCN(C4CCCC4)CC3)cc2)n1` [Example 233, 3-(4-(1-cyclopentylpiperidin-4-yl)phenylamino)-5-((2S,3R)-3-(3,3-dimethylureido)-2-methylpiperidin-1-yl)pyrazine-2-carboxamide], the IC50 by setting is: (Btk (IC50)) 100 to 1000 nM; under setting [1], 100 to 1000 nM.
For the molecule `NC(=O)c1nnc(N2CCC[C@@H](NC(=O)N3CCCCC3)C2)nc1Nc1ccc(C2CCN(C3CCCC3)CC2)cc1` [Example 336, (R)-5-(4-(1-cyclopentylpiperidin-4-yl)phenylamino)-3-(3-(piperidine-1-carboxamido)piperidin-1-yl)-1,2,4-triazine-6-carboxamide], the IC50 is < 10 nM under setting [1] and < 10 nM (read-out: Btk (IC50)).
On to `CN(C)C(=O)N(C)[C@@H]1CCCN(c2cnc(C(N)=O)c(Nc3ccc(C4CCN(C5CCCC5)CC4)cc3)n2)C1` [Example 225, (R)-3-(4-(1-cyclopentylpiperidin-4-yl)phenylamino)-5-(3-(1,3,3-trimethylureido)piperidin-1-yl)pyrazine-2-carboxamide], for which the IC50 was 10 to 100 nM (Btk (IC50)) and < 10 nM under setting [1].
